Series [1] has as its system sphaerotheca fuliginea. Briefly: Sphaerotheca-test (cucumber). The series is classed as in vivo. To be noted: protective, application rate 500 ppm, evaluated 7 days after inoculation.
For series [2], the system named is Podosphaera leucotricha. Briefly: Podosphaera test (apple)/protective. The series is classed as in vivo. To be noted: protective, application rate 100 g/ha, evaluated 7 days after inoculation. On the procedure:
Podosphaera Test (Apple)/Protective
(§1) To produce a suitable preparation of active compound, 1 part by weight of active compound is mixed with the stated amounts of solvent and emulsifier, and the concentrate is diluted with water to the desired concentration.
To test for protective activity, young plants are sprayed with the preparation of active compound at the stated rate of application. After the spray coating has dried on, the plants are inoculated with an aqueous spore suspension of the causal agent of apple mildew (Podosphaera leucotricha). The plants are then placed in a greenhouse at approximately 23° C. and a relative atmospheric humidity of approximately 70%.
The test is evaluated 7 days after the inoculation. 0% means an efficacy which corresponds to that of the control, while an efficacy of 100% means that no disease is observed.

The subject of series [3] is Botrytis cinerea. The series is described as follows: Botrytis test (beans)/protective. The series is classed as in vivo. To be noted: protective, application rate 500 g/ha, lesion size 2 days after inoculation. On the procedure: Botrytis Test (Beans)/Protective
as §1
To test for protective activity, young plants are sprayed with the preparation of active compound. After the spray coating has dried on, 2 small pieces of agar covered with growth of Botrytis cinerea are placed on each leaf. The inoculated plants are placed in a darkened chamber at 20° C. and a relative atmospheric humidity of 100%.
2 days after the inoculation, the size of the lesions on the leaves is evaluated. 0% means an efficacy which corresponds to that of the control, while an efficacy of 100% means that no disease is observed.

Series [4] has as its system Spodoptera frugiperda. Briefly: Spodoptera frugiperda-test (sensible strain). To be noted: cabbage leaves dipped, larvae, after six days. In kind it is in vivo. On the procedure: Spodoptera frugiperda-Test (Sensible Strain)
Pieces of cabbage leaves (Brassica oleracea) are treated by being dipped into the preparation of the active compound of the desired concentration and are infested with larvae of the fall army worm (Spodoptera frugiperda) as long as the leaves are still moist.
After six days the mortality in % is determined. 100% means that all the caterpillars have been killed; 0% means that none of the caterpillars have been killed.

Series [5] has as its system Venturia inaequalis. The series is described as follows: Venturia test (apples)/protective. In kind it is in vivo. To be noted: protective, application rate 100 g/ha, evaluated 10 days after inoculation. On the procedure:
Venturia Test (Apples)/Protective
as §1
To test for protective activity, young plants are sprayed with the preparation of active compound at the stated rate of application. After the spray coating has dried on, the plants are inoculated with an aqueous conidia suspension of the causal agent of apple scab (Venturia inaequalis) and then remain for 1 day in an incubation cabinet at approximately 20° C. and a relative atmospheric humidity of 100%.
The plants are then placed in a greenhouse at approximately 21° C. and a relative atmospheric humidity of approximately 90%.
The test is evaluated 10 days after the inoculation. 0% means an efficacy which corresponds to that of the control, while an efficacy of 100% means that no disease is observed.

Each structure is given as a SMILES string.

`CCCCCC[C@H]1C(=O)N[C@@]2([C@@H](O)C(C)C)C(=O)O[C@@]12C` [(1R,4R,5S)-4-hexyl-1-[(1S)-1-hydroxy-2-methylpropyl]-5-methyl-6-oxa-2-azabicyclo[3.2.0]heptane-3,7-dione]: the chromatographic logP (usually a lipophilicity value derived from retention on a column) was found to be 2.87.

Regarding `CCCCCC[C@H]1C(=O)N[C@@]2([C@@H](O)C(C)C)C(=O)O[C@@]12C` [Example 8, (1R,4R,5S)-4-hexyl-1-[(1S)-1-hydroxy-2-methylpropyl]-5-methyl-6-oxa-2-azabicyclo[3.2.0]heptane-3,7-dione], in series [1], the efficacy came out at 70%.

Take `CCCCCC[C@H]1C(=O)N[C@@]2([C@@H](O)[C@@H]3C=CCCC3)C(=O)O[C@@]12C` [Example 1, (1R,4R,5S)-1-[(S)-(1S)-2-cyclohexen-1-yl(hydroxy)methyl]-4-hexyl-5-methyl-6-oxa-2-azabicyclo[3.2.0]heptane-3,7-dione]: the efficacy in series [1] is on record as 70%; in series [2], 100%; in series [3] it was “more than 90%”; in series [5] it was 100%. In addition, the “efficacy (mortality)” value in series [4] turned out to be 100%.

For the molecule `CCCCCC[C@@H]1C(=O)N[C@@]2([C@@H](O)C(C)C)C(=O)O[C@@]12C` [(1R,4S,5S)-4-hexyl-1-[(1S)-1-hydroxy-2-methylpropyl]-5-methyl-6-oxa-2-azabicyclo[3.2.0]heptane-3,7-dione], the chromatographic logP was determined as 2.79.

Values taken from patent US20080064736A1, “Substituted 2-Pyrrolidone Derivatives as Fungicides and Insecticides” (Bayer Cropscience AG, priority 2004, published 2008).
